{"source": "patent US20200054633A1", "about": "(priority 2017, published 2020)", "settings": "for subjects with nausea / subjects with treatment-emergent diarrhea: Safety Set", "note": "Entries after “also recorded” stand apart in the source; their conditions may differ. Where two headings read alike, the source gives them in different places.", "description": "This study followed a randomized, double-blind, placebo-controlled, parallel-group, multicenter design.\nAnalysis set for safety: Safety Set included all subjects who received at least 1 dose of study drug."}
{"molecule": "O=C(O)[C@H]1C2CCC(CC2)[C@@H]1Nc1nc(-c2c[nH]c3ncc(F)cc23)ncc1F", "note": "[Compound (1), Pimodivir]", "values": [{"measurement": "TEAE: Hyperglycaemia", "setting": "600 mg, OST placebo, N=74", "result": "2 (2.7%) n (%)"}, {"measurement": "TEAE: Hyperhidrosis", "setting": "600 mg, OST placebo, N=74", "result": "1 (1.4%) n (%)"}, {"measurement": "TEAE: Hyperkalaemia", "setting": "600 mg, OST placebo, N=74", "result": "2 (2.7%) n (%)"}, {"measurement": "TEAE: Hyperproteinaemia", "setting": "600 mg, OST placebo, N=74", "result": "0 n (%)"}, {"measurement": "TEAE: Hypertension", "setting": "600 mg, OST placebo, N=74", "result": "0 n (%)"}, {"measurement": "TEAE: Hyperuricaemia", "setting": "600 mg, OST placebo, N=74", "result": "0 n (%)"}, {"measurement": "TEAE: Hypokalaemia", "setting": "600 mg, OST placebo, N=74", "result": "0 n (%)"}, {"measurement": "TEAE: Hyponatraemia", "setting": "600 mg, OST placebo, N=74", "result": "0 n (%)"}, {"measurement": "TEAE: Hypophosphataemia", "setting": "600 mg, OST placebo, N=74", "result": "0 n (%)"}, {"measurement": "TEAE: Hypothermia", "setting": "600 mg, OST placebo, N=74", "result": "0 n (%)"}, {"measurement": "TEAE: Increased appetite", "setting": "600 mg, OST placebo, N=74", "result": "1 (1.4%) n (%)"}, {"measurement": "TEAE: Infections and infestations", "setting": "600 mg, OST placebo, N=74", "result": "1 (1.4%) n (%)"}, {"measurement": "TEAE: Injury, poisoning and procedural complications", "setting": "600 mg, OST placebo, N=74", "result": "1 (1.4%) n (%)"}, {"measurement": "TEAE: Insomnia", "setting": "600 mg, OST placebo, N=74", "result": "1 (1.4%) n (%)"}, {"measurement": "TEAE: Investigations", "setting": "600 mg, OST placebo, N=74", "result": "10 (13.5%) n (%)"}, {"measurement": "TEAE: Irritability", "setting": "600 mg, OST placebo, N=74", "result": "1 (1.4%) n (%)"}, {"measurement": "TEAE: Labyrinthitis", "setting": "600 mg, OST placebo, N=74", "result": "0 n (%)"}, {"measurement": "TEAE: Leukopenia", "setting": "600 mg, OST placebo, N=74", "result": "1 (1.4%) n (%)"}, {"measurement": "TEAE: Lymph node pain", "setting": "600 mg, OST placebo, N=74", "result": "0 n (%)"}, {"measurement": "TEAE: Lymphadenopathy", "setting": "600 mg, OST placebo, N=74", "result": "0 n (%)"}, {"measurement": "TEAE: Lymphopenia", "setting": "600 mg, OST placebo, N=74", "result": "1 (1.4%) n (%)"}, {"measurement": "TEAE: Metabolism and nutrition disorders", "setting": "600 mg, OST placebo, N=74", "result": "5 (6.8%) n (%)"}, {"measurement": "TEAE: Micturition urgency", "setting": "600 mg, OST placebo, N=74", "result": "1 (1.4%) n (%)"}, {"measurement": "TEAE: Middle ear effusion", "setting": "600 mg, OST placebo, N=74", "result": "0 n (%)"}, {"measurement": "TEAE: Migraine", "setting": "600 mg, OST placebo, N=74", "result": "1 (1.4%) n (%)"}, {"measurement": "TEAE: Muscle spasms", "setting": "600 mg, OST placebo, N=74", "result": "0 n (%)"}, {"measurement": "TEAE: Musculoskeletal and connective tissue disorders", "setting": "600 mg, OST placebo, N=74", "result": "1 (1.4%) n (%)"}, {"measurement": "TEAE: Musculoskeletal chest pain", "setting": "600 mg, OST placebo, N=74", "result": "0 n (%)"}, {"measurement": "TEAE: Myalgia", "setting": "600 mg, OST placebo, N=74", "result": "0 n (%)"}, {"measurement": "TEAE: Myocarditis", "setting": "600 mg, OST placebo, N=74", "result": "0 n (%)"}, {"measurement": "TEAE: Nasal congestion", "setting": "600 mg, OST placebo, N=74", "result": "0 n (%)"}, {"measurement": "TEAE: Nausea", "setting": "600 mg, OST placebo, N=74", "result": "3 (4.1%) n (%)"}, {"measurement": "TEAE: Nephropathy", "setting": "600 mg, OST placebo, N=74", "result": "0 n (%)"}, {"measurement": "TEAE: Nervous system disorders", "setting": "600 mg, OST placebo, N=74", "result": "4 (5.4%) n (%)"}, {"measurement": "TEAE: Neutropenia", "setting": "600 mg, OST placebo, N=74", "result": "1 (1.4%) n (%)"}, {"measurement": "TEAE: Neutrophil count decreased", "setting": "600 mg, OST placebo, N=74", "result": "4 (5.4%) n (%)"}, {"measurement": "TEAE: Oedema peripheral", "setting": "600 mg, OST placebo, N=74", "result": "0 n (%)"}, {"measurement": "TEAE: Oral herpes", "setting": "600 mg, OST placebo, N=74", "result": "1 (1.4%) n (%)"}, {"measurement": "TEAE: Otitis media", "setting": "600 mg, OST placebo, N=74", "result": "0 n (%)"}, {"measurement": "TEAE: Paraesthesia", "setting": "600 mg, OST placebo, N=74", "result": "0 n (%)"}, {"measurement": "TEAE: Percussion test abnormal", "setting": "600 mg, OST placebo, N=74", "result": "0 n (%)"}, {"measurement": "TEAE: Petechiae", "setting": "600 mg, OST placebo, N=74", "result": "0 n (%)"}, {"measurement": "TEAE: Pharyngitis streptococcal", "setting": "600 mg, OST placebo, N=74", "result": "0 n (%)"}, {"measurement": "TEAE: Pneumonia chlamydial", "setting": "600 mg, OST placebo, N=74", "result": "0 n (%)"}, {"measurement": "TEAE: Protein urine", "setting": "600 mg, OST placebo, N=74", "result": "0 n (%)"}, {"measurement": "TEAE: Protein urine present", "setting": "600 mg, OST placebo, N=74", "result": "0 n (%)"}, {"measurement": "TEAE: Proteinuria", "setting": "600 mg, OST placebo, N=74", "result": "0 n (%)"}, {"measurement": "TEAE: Pruritus", "setting": "600 mg, OST placebo, N=74", "result": "0 n (%)"}, {"measurement": "TEAE: Psychiatric disorders", "setting": "600 mg, OST placebo, N=74", "result": "3 (4.1%) n (%)"}, {"measurement": "TEAE: Rash", "setting": "600 mg, OST placebo, N=74", "result": "0 n (%)"}, {"measurement": "TEAE: Red blood cells urine", "setting": "600 mg, OST placebo, N=74", "result": "0 n (%)"}, {"measurement": "TEAE: Renal and urinary disorders", "setting": "600 mg, OST placebo, N=74", "result": "1 (1.4%) n (%)"}, {"measurement": "TEAE: Renal failure", "setting": "600 mg, OST placebo, N=74", "result": "0 n (%)"}, {"measurement": "TEAE: Renal failure chronic", "setting": "600 mg, OST placebo, N=74", "result": "0 n (%)"}, {"measurement": "TEAE: Renal impairment", "setting": "600 mg, OST placebo, N=74", "result": "0 n (%)"}, {"measurement": "TEAE: Respiratory, thoracic and mediastinal disorders", "setting": "600 mg, OST placebo, N=74", "result": "2 (2.7%) n (%)"}, {"measurement": "TEAE: Rhonchi", "setting": "600 mg, OST placebo, N=74", "result": "0 n (%)"}, {"measurement": "TEAE: Sensation of foreign body", "setting": "600 mg, OST placebo, N=74", "result": "0 n (%)"}, {"measurement": "TEAE: Sinus bradycardia", "setting": "600 mg, OST placebo, N=74", "result": "0 n (%)"}, {"measurement": "TEAE: Sinus congestion", "setting": "600 mg, OST placebo, N=74", "result": "0 n (%)"}, {"measurement": "TEAE: Sinus tachycardia", "setting": "600 mg, OST placebo, N=74", "result": "0 n (%)"}, {"measurement": "TEAE: Sinusitis", "setting": "600 mg, OST placebo, N=74", "result": "0 n (%)"}, {"measurement": "TEAE: Skin and subcutaneous tissue disorders", "setting": "600 mg, OST placebo, N=74", "result": "2 (2.7%) n (%)"}, {"measurement": "TEAE: Sleep disorder", "setting": "600 mg, OST placebo, N=74", "result": "1 (1.4%) n (%)"}, {"measurement": "TEAE: Sleep terror", "setting": "600 mg, OST placebo, N=74", "result": "0 n (%)"}, {"measurement": "TEAE: Syncope", "setting": "600 mg, OST placebo, N=74", "result": "0 n (%)"}, {"measurement": "TEAE: Tachycardia", "setting": "600 mg, OST placebo, N=74", "result": "0 n (%)"}, {"measurement": "TEAE: Thrombocytopenia", "setting": "600 mg, OST placebo, N=74", "result": "0 n (%)"}, {"measurement": "TEAE: Tinnitus", "setting": "600 mg, OST placebo, N=74", "result": "0 n (%)"}, {"measurement": "TEAE: Tongue discolouration", "setting": "600 mg, OST placebo, N=74", "result": "0 n (%)"}, {"measurement": "TEAE: Tremor", "setting": "600 mg, OST placebo, N=74", "result": "0 n (%)"}, {"measurement": "TEAE: Upper respiratory tract infection", "setting": "600 mg, OST placebo, N=74", "result": "0 n (%)"}, {"measurement": "TEAE: Urinary tract infection", "setting": "600 mg, OST placebo, N=74", "result": "0 n (%)"}, {"measurement": "TEAE: Urine ketone body present", "setting": "600 mg, OST placebo, N=74", "result": "0 n (%)"}, {"measurement": "TEAE: Vascular disorders", "setting": "600 mg, OST placebo, N=74", "result": "0 n (%)"}, {"measurement": "TEAE: Vertigo", "setting": "600 mg, OST placebo, N=74", "result": "0 n (%)"}, {"measurement": "TEAE: Vomiting", "setting": "600 mg, OST placebo, N=74", "result": "3 (4.1%) n (%)"}, {"measurement": "TEAE: Wheezing", "setting": "600 mg, OST placebo, N=74", "result": "1 (1.4%) n (%)"}, {"measurement": "TEAE: White blood cell count decreased", "setting": "600 mg, OST placebo, N=74", "result": "1 (1.4%) n (%)"}, {"measurement": "Worst grade 1 or 2 TEAE", "setting": "600 mg, OST placebo, N=74", "result": "34 (45.9%)"}, {"measurement": "Worst grade 3 TEAE", "setting": "600 mg, OST placebo, N=74", "result": "5 (6.8%)"}, {"measurement": "Worst grade 3 or 4 TEAE", "setting": "600 mg, OST placebo, N=74", "result": "5 (6.8%)"}, {"measurement": "Worst grade 4 TEAE", "setting": "600 mg, OST placebo, N=74", "result": 0}, {"measurement": "subjects with nausea", "setting": "Compound (1) 300 mg bid", "result": 4.1, "unit": "%"}, {"measurement": "subjects with treatment-emergent diarrhea", "setting": "Compound (1) 300 mg bid", "result": 6.8, "unit": "%"}, {"measurement": "severe events considered possibly related to trial medication", "setting": "Compound (1) 600 mg bid", "result": "blood creatine phosphokinase increased and diarrhea"}, {"measurement": "subjects with nausea", "setting": "Compound (1) 600 mg bid", "result": 4.1, "unit": "%"}, {"measurement": "subjects with treatment-emergent diarrhea", "setting": "Compound (1) 600 mg bid", "result": 27.0, "unit": "%"}, {"measurement": "treatment-emergent serious adverse event (SAE)", "setting": "Compound (1) 600 mg bid, one subject, doubtfully related according to the investigator", "result": "an SAE of moderate increased alanine aminotransferase; also recorded: a moderate treatment-emergent AE (TEAE) of increased alanine aminotransferase"}, {"measurement": "overall safety and tolerability", "setting": "clinical study, 300 or 600 mg bid", "result": "generally safe and well tolerated"}]}
